From ChEMBL document CHEMBL3301361, “Experimental in vitro DMPK and physicochemical data on a set of publicly disclosed compounds” come the findings set out here.

The structures appear in SMILES notation. Values after ≈ are worked out from the molar mass of the structure shown. Some results are limits rather than exact numbers.

Data set [1] can be described thus: physchem. The conditions noted are these: pH 7.4 buffer.
Data set [2] is described as follows: in vitro. To be noted: human.
The nature of data set [3]: in vitro. The conditions noted are these: hepatocytes.
The nature of data set [4]: physchem. To be noted: octan-1-ol/water, pH 7.4, LogD7.4.

Compound `Cc1ccc(CCOCCNS(=O)(=O)CCCNCCc2ccc(O)c3nc(O)sc23)cc1` yielded a thermodynamic solubility in data set [1] of 372 µM (≈ 183 µg/mL). In addition, the microsomal CLint in data set [2] (liver microsomes) was more than 150 µL/min/mg. In data set [3], this compound gave an intrinsic metabolic clearance (hepatocyte CLint) of more than 150 µL/min/1e6 cells.
With `O=c1[nH]c2c(O)ccc([C@@H](O)CNCCc3ccccc3CNCCc3ccccc3F)c2s1`, in data set [2] (microsomes), the microsomal CLint came out at 27.5 µL/min/mg. The compound also came in with a hepatocyte CLint in data set [3] of 107 µL/min/1e6 cells. The compound further showed a log distribution coefficient (logD) in data set [4] of 1.58.
`COc1ccccc1CN(C)Cc1cccc(CCNC[C@H](O)c2ccc(O)c3[nH]c(=O)sc23)c1` displayed an intrinsic clearance (microsomal CLint) in data set [2] (liver microsomes) of 45 µL/min/mg. Moreover, in data set [3], the hepatocyte CLint is 33 µL/min/1e6 cells. Moreover, the logD in data set [4] turned out to be 1.52.
The matching figures for `Cc1cc(C)nc(SCC(=O)Nc2cc(C)on2)n1`: more than 150 µL/min/mg, 141 µL/min/1e6 cells and 1.52.
Compound `O=C(O)CCc1ccc(OCc2cccc(Oc3ccccc3)c2)cc1` gave a microsomal CLint in data set [2] (microsomes) of 4.9 µL/min/mg. The intrinsic metabolic clearance (hepatocyte CLint) in data set [3] came to 97.7 µL/min/1e6 cells. The compound further showed a logD in data set [4] of 2.47.
Regarding `CC1(C)[C@@H]2CC[C@@]1(CS(=O)(=O)N1CCN(c3ccc(C#N)cn3)CC1)C(=O)C2`, the intrinsic metabolic clearance (microsomal CLint) in data set [2] (liver microsomes) was determined as 103 µL/min/mg. This compound registered a hepatocyte CLint in data set [3] of more than 150 µL/min/1e6 cells. The same compound yielded a logD in data set [4] of 2.46.
`COc1cc(-c2ccc(Nc3ccccc3C(=O)O)c(OC)c2)ccc1Nc1ccccc1C(=O)O` came in with a microsomal CLint in data set [2] (liver microsomes) of 6.61 µL/min/mg. This compound also showed an intrinsic metabolic clearance (hepatocyte CLint) in data set [3] of 31.6 µL/min/1e6 cells. The same compound returned a logD in data set [4] of 1.8.
As to `Nc1ncnc2c1ncn2[C@@H]1O[C@H](CSCCCNC(=O)Nc2ccccc2)[C@@H](O)[C@H]1O`, the microsomal CLint in data set [2] (microsomes) was 9.77 µL/min/mg. The hepatocyte CLint in data set [3] worked out at 28.2 µL/min/1e6 cells. In addition, the log distribution coefficient (logD) in data set [4] was 1.9.
Turning to `c1ccc(Nc2[nH]nnc2-c2ccccc2)cc1`, the intrinsic metabolic clearance (microsomal CLint) in data set [2] (liver microsomes) was found to be 119 µL/min/mg. In addition, the hepatocyte CLint in data set [3] is 111 µL/min/1e6 cells. Also, the logD in data set [4] was found to be 3.37.
The matching figures for `COc1ccc(Cc2c(N)n[nH]c2N)cc1`: 5.37 µL/min/mg, 3.63 µL/min/1e6 cells and 0.2.
As for `COc1cc2c(Nc3ccc(F)c(Cl)c3)c(C(N)=O)cnc2cc1OCCN(C)CCO`, the microsomal CLint in data set [2] (liver microsomes) came to 27.5 µL/min/mg. In data set [3], this compound came in with a hepatocyte CLint of 12.6 µL/min/1e6 cells. Moreover, the logD in data set [4] was 3.2.
As for `Cc1ccc(S(=O)(=O)Nc2c(C(=O)NC3CCCCC3C)cnn2-c2ccccc2)cc1` (stereo not given), the intrinsic metabolic clearance (microsomal CLint) in data set [2] (liver microsomes) amounted to 59 µL/min/mg. Moreover, in data set [3], the hepatocyte CLint came out at 5 µL/min/1e6 cells. Besides, the pH-dependent lipophilicity (logD) in data set [4] turned out to be 1.34.
The matching figures for `Cc1nn(-c2ccc(F)cc2)c(NS(=O)(=O)c2cccnc2)c1C(=O)N[C@@H](C)C(C)(C)C`: less than 3 µL/min/mg, 12 µL/min/1e6 cells and 0.4.
In data set [2] (liver microsomes), `COc1ccc(CC(=O)NC(NC(=NC#N)Nc2ccccc2C)C(C)(C)C)cc1OC` (stereo not given) registered a microsomal CLint of more than 150 µL/min/mg. In data set [3], this compound came in with a hepatocyte CLint of 26 µL/min/1e6 cells. Moreover, the log distribution coefficient (logD) in data set [4] was determined as 2.48.
Turning to `Cc1c2c(=O)n(-c3ccccc3Cl)[nH]c2cc(=O)n1Cc1ccccn1`, the microsomal CLint in data set [2] (liver microsomes) is less than 3 µL/min/mg. Further, the hepatocyte CLint in data set [3] is less than 3 µL/min/1e6 cells. In data set [4], the logD came out at 0.2.
In turn, `COc1ccc(C(=O)NCc2cn(-c3cc(C)nc4ccc(OC)cc34)nn2)cc1` gave a microsomal CLint in data set [2] (microsomes) of 64.6 µL/min/mg. In data set [3], this compound returned a hepatocyte CLint of 13.8 µL/min/1e6 cells. Further, the logD in data set [4] amounted to 3.5.
In turn, `CCc1c(C)nc(SCC(=O)Nc2nc(-c3ccc(OC)cc3)cs2)nc1O` displayed a microsomal CLint in data set [2] (liver microsomes) of 66.1 µL/min/mg. Further, the hepatocyte CLint in data set [3] was 66.1 µL/min/1e6 cells. This compound also gave a pH-dependent lipophilicity (logD) in data set [4] of 3.78.
In turn, `COc1ccc(CNCc2cccc(CCNC[C@H](O)c3ccc(O)c4[nH]c(=O)sc34)c2)cc1` yielded an intrinsic clearance (microsomal CLint) in data set [2] (liver microsomes) of 62 µL/min/mg. Further, the intrinsic metabolic clearance (hepatocyte CLint) in data set [3] is 13 µL/min/1e6 cells. Moreover, in data set [4], the logD is 0.86.
In data set [2] (liver microsomes), `c1csc(Cn2nnnc2CN2CCN(c3nc4ccccc4s3)CC2)c1` showed a microsomal CLint of 99 µL/min/mg. The compound also returned a hepatocyte CLint in data set [3] of more than 150 µL/min/1e6 cells. The compound also registered a log distribution coefficient (logD) in data set [4] of 3.65.
The matching figures for `CC(=O)c1ncccc1NC(=O)[C@H]1CC[C@H](N2C(=O)[C@@H]3[C@@H]4CC[C@@H](C4)[C@@H]3C2=O)CC1`: 16.6 µL/min/mg, more than 150 µL/min/1e6 cells and 3.01.
As to `O=C(NCC12CC3CC(CC(C3)C1)C2)c1ccnc(NCC2CCNCC2)c1Cl`, in data set [2] (microsomes), the microsomal CLint turned out to be 68 µL/min/mg. Also, the intrinsic metabolic clearance (hepatocyte CLint) in data set [3] came out at 4 µL/min/1e6 cells. For the same compound, in data set [4], the log distribution coefficient (logD) is 0.6.
In data set [2] (microsomes), `O=C(c1csc2c1CCCC2)N1CCCCC1` returned an intrinsic metabolic clearance (microsomal CLint) of 117 µL/min/mg. The hepatocyte CLint in data set [3] is more than 150 µL/min/1e6 cells. The compound also displayed a logD in data set [4] of 3.2.
In data set [2] (liver microsomes), `O=C(Nc1c[nH]nc1-c1nc2cc(CN3CCOCC3)ccc2[nH]1)NC1CC1` [AT-9283] gave a microsomal CLint of 8.32 µL/min/mg. The compound further displayed an intrinsic metabolic clearance (hepatocyte CLint) in data set [3] of less than 3 µL/min/1e6 cells. Also, the logD in data set [4] came to 2.3.
`CCC(CC)NC(=O)c1cnn(-c2ccccc2Cl)c1NS(=O)(=O)c1ccc(C)cc1`: in data set [2] (liver microsomes), the microsomal CLint worked out at 72 µL/min/mg. In addition, the intrinsic clearance (hepatocyte CLint) in data set [3] worked out at 56 µL/min/1e6 cells. Besides, the logD in data set [4] was 0.65.
As for `Cc1cccc2c(CCNCc3cccc(CCNC[C@H](O)c4ccc(O)c5[nH]c(=O)sc45)c3)c[nH]c12`, the intrinsic clearance (microsomal CLint) in data set [2] (liver microsomes) stood at 16 µL/min/mg. Moreover, the intrinsic clearance (hepatocyte CLint) in data set [3] was 24 µL/min/1e6 cells. In addition, in data set [4], the logD was found to be 1.13.
